Species: Rattus norvegicus
Test: Open TG-GATES - Regimen: Single
Assay type: toxicity, organism-based, Sprague-Dawley
Set-up: regimen Single, gender Male, age 6 weeks
Conditions: in vivo, po, route gavage; for gamma-GTP / ALP / ALT / AST / BUN / CRE / Ca / Cl / DBIL / GLC / IP / K / LDH / PL / RALB / TBIL / TC / TP / Na: tissue Plasma; for APTT / Bas / Eos / Fbg / Hb / Ht / Lym / MCH / MCHC / MCV / Mono / PT / Plat / RBC / Ret / WBC: tissue Blood; for KIDNEY_L / KIDNEY_R / KIDNEY_TOTAL: tissue Kidney; for LIVER: tissue Liver
[1] = 10 mg/kg, 24 h, dose level High

C#C[C@]1(O)CC[C@H]2[C@@H]3CCc4cc(O)ccc4[C@H]3CC[C@@]21C [ETHINYL ESTRADIOL]
gamma-GTP (3 mg/kg, 24 h, dose level Middle): 1 IU/L | TERMINAL_BW (10 mg/kg, 3 h, dose level High): 198.2 g | APTT (10 mg/kg, 3 h, dose level High): 15.3 s | Bas (10 mg/kg, 3 h, dose level High): 0% | Eos (10 mg/kg, 3 h, dose level High): 0.8% | Fbg (10 mg/kg, 3 h, dose level High): 270.4 mg/dL | Hb (10 mg/kg, 3 h, dose level High): 13 g/dL | Ht (10 mg/kg, 3 h, dose level High): 39.6% | Lym (10 mg/kg, 3 h, dose level High): 78.6% | MCH (10 mg/kg, 3 h, dose level High): 21.4 pg | MCHC (10 mg/kg, 3 h, dose level High): 32.9% | MCV (10 mg/kg, 3 h, dose level High): 65.2 fL | Mono (10 mg/kg, 3 h, dose level High): 3% | PT (10 mg/kg, 3 h, dose level High): 12.2 s | Plat (10 mg/kg, 3 h, dose level High): 115.1 x10_4/uL | RBC (10 mg/kg, 3 h, dose level High): 608.4 x10_4/ul | Ret (10 mg/kg, 3 h, dose level High): 9.5% | WBC (10 mg/kg, 3 h, dose level High): 93.6 x10_2/uL | KIDNEY_L (10 mg/kg, 3 h, dose level High): 0.9 g | KIDNEY_R (10 mg/kg, 3 h, dose level High): 0.9 g | KIDNEY_TOTAL (10 mg/kg, 3 h, dose level High): 1.8 g | LIVER (10 mg/kg, 3 h, dose level High): 8.6 g | ALP (10 mg/kg, 3 h, dose level High): 1437.2 IU/L | ALT (10 mg/kg, 3 h, dose level High): 44 IU/L | AST (10 mg/kg, 3 h, dose level High): 74 IU/L | BUN (10 mg/kg, 3 h, dose level High): 9.8 mg/dL | CRE (10 mg/kg, 3 h, dose level High): 0.2 mg/dL | Ca (10 mg/kg, 3 h, dose level High): 11.2 mg/dL | Cl (10 mg/kg, 3 h, dose level High): 105.8 meq/L | DBIL (10 mg/kg, 3 h, dose level High): 0.016 mg/dL | GLC (10 mg/kg, 3 h, dose level High): 182.8 mg/dL | IP (10 mg/kg, 3 h, dose level High): 9.7 mg/dL | K (10 mg/kg, 3 h, dose level High): 4 meq/L | LDH (10 mg/kg, 3 h, dose level High): 55 IU/L | PL (10 mg/kg, 3 h, dose level High): 139.8 mg/dL | RALB (10 mg/kg, 3 h, dose level High): 2.5 g/dL | TBIL (10 mg/kg, 3 h, dose level High): 0.044 mg/dL | TC (10 mg/kg, 3 h, dose level High): 73.4 mg/dL | TP (10 mg/kg, 3 h, dose level High): 5.3 g/dL | gamma-GTP (10 mg/kg, 3 h, dose level High): 1 IU/L | TERMINAL_BW (10 mg/kg, 6 h, dose level High): 197 g | APTT (10 mg/kg, 6 h, dose level High): 16.9 s | Bas (10 mg/kg, 6 h, dose level High): 0% | Eos (10 mg/kg, 6 h, dose level High): 1% | Fbg (10 mg/kg, 6 h, dose level High): 255.2 mg/dL | Hb (10 mg/kg, 6 h, dose level High): 12.8 g/dL | Lym (10 mg/kg, 6 h, dose level High): 72% | MCHC (10 mg/kg, 6 h, dose level High): 33.7% | MCV (10 mg/kg, 6 h, dose level High): 63 fL | PT (10 mg/kg, 6 h, dose level High): 12.5 s | Plat (10 mg/kg, 6 h, dose level High): 110.6 x10_4/uL | RBC (10 mg/kg, 6 h, dose level High): 605.4 x10_4/ul | Ret (10 mg/kg, 6 h, dose level High): 9.4% | WBC (10 mg/kg, 6 h, dose level High): 71.5 x10_2/uL | KIDNEY_L (10 mg/kg, 6 h, dose level High): 0.9 g | KIDNEY_R (10 mg/kg, 6 h, dose level High): 0.9 g | KIDNEY_TOTAL (10 mg/kg, 6 h, dose level High): 1.8 g | LIVER (10 mg/kg, 6 h, dose level High): 8 g | ALP (10 mg/kg, 6 h, dose level High): 1644.6 IU/L | ALT (10 mg/kg, 6 h, dose level High): 39.6 IU/L | AST (10 mg/kg, 6 h, dose level High): 78.6 IU/L | BUN (10 mg/kg, 6 h, dose level High): 7.6 mg/dL | CRE (10 mg/kg, 6 h, dose level High): 0.2 mg/dL | Ca (10 mg/kg, 6 h, dose level High): 10.7 mg/dL | Cl (10 mg/kg, 6 h, dose level High): 108.8 meq/L | DBIL (10 mg/kg, 6 h, dose level High): 0.018 mg/dL | IP (10 mg/kg, 6 h, dose level High): 10.5 mg/dL | LDH (10 mg/kg, 6 h, dose level High): 42.8 IU/L | Na (10 mg/kg, 6 h, dose level High): 145 meq/L | PL (10 mg/kg, 6 h, dose level High): 115.6 mg/dL | RALB (10 mg/kg, 6 h, dose level High): 2.6 g/dL | TBIL (10 mg/kg, 6 h, dose level High): 0.042 mg/dL | TC (10 mg/kg, 6 h, dose level High): 58.8 mg/dL | TP (10 mg/kg, 6 h, dose level High): 5.4 g/dL | gamma-GTP (10 mg/kg, 6 h, dose level High): 1 IU/L | TERMINAL_BW (10 mg/kg, 9 h, dose level High): 194.6 g | APTT (10 mg/kg, 9 h, dose level High): 15.5 s | Bas (10 mg/kg, 9 h, dose level High): 0.2% | Eos (10 mg/kg, 9 h, dose level High): 1% | Fbg (10 mg/kg, 9 h, dose level High): 262.8 mg/dL | Hb (10 mg/kg, 9 h, dose level High): 13.1 g/dL | Ht (10 mg/kg, 9 h, dose level High): 39% | Lym (10 mg/kg, 9 h, dose level High): 72% | MCH (10 mg/kg, 9 h, dose level High): 21.6 pg | MCHC (10 mg/kg, 9 h, dose level High): 33.6% | MCV (10 mg/kg, 9 h, dose level High): 64.5 fL | PT (10 mg/kg, 9 h, dose level High): 12.8 s | Plat (10 mg/kg, 9 h, dose level High): 104.1 x10_4/uL | RBC (10 mg/kg, 9 h, dose level High): 606 x10_4/ul | Ret (10 mg/kg, 9 h, dose level High): 8.6% | WBC (10 mg/kg, 9 h, dose level High): 82.4 x10_2/uL | KIDNEY_L (10 mg/kg, 9 h, dose level High): 0.9 g | KIDNEY_R (10 mg/kg, 9 h, dose level High): 0.8 g | KIDNEY_TOTAL (10 mg/kg, 9 h, dose level High): 1.7 g | LIVER (10 mg/kg, 9 h, dose level High): 7.2 g | ALP (10 mg/kg, 9 h, dose level High): 1741.8 IU/L | ALT (10 mg/kg, 9 h, dose level High): 40.8 IU/L | AST (10 mg/kg, 9 h, dose level High): 76.8 IU/L | BUN (10 mg/kg, 9 h, dose level High): 8 mg/dL | CRE (10 mg/kg, 9 h, dose level High): 0.2 mg/dL | Ca (10 mg/kg, 9 h, dose level High): 10.5 mg/dL | Cl (10 mg/kg, 9 h, dose level High): 109 meq/L | DBIL (10 mg/kg, 9 h, dose level High): 0.018 mg/dL | GLC (10 mg/kg, 9 h, dose level High): 188.2 mg/dL | IP (10 mg/kg, 9 h, dose level High): 10.1 mg/dL | K (10 mg/kg, 9 h, dose level High): 3.7 meq/L | LDH (10 mg/kg, 9 h, dose level High): 40.6 IU/L | Na (10 mg/kg, 9 h, dose level High): 146 meq/L | PL (10 mg/kg, 9 h, dose level High): 90.6 mg/dL | RALB (10 mg/kg, 9 h, dose level High): 2.4 g/dL | TBIL (10 mg/kg, 9 h, dose level High): 0.046 mg/dL | TC (10 mg/kg, 9 h, dose level High): 41.6 mg/dL | TP (10 mg/kg, 9 h, dose level High): 5.2 g/dL | TERMINAL_BW [1]: 197.9 g | Bas [1]: 0% | Eos [1]: 1% | Fbg [1]: 203.8 mg/dL | Hb [1]: 12.9 g/dL | Ht [1]: 38% | Lym [1]: 78.4% | MCH [1]: 22 pg | MCHC [1]: 34% | MCV [1]: 64.6 fL | Mono [1]: 4.4% | Plat [1]: 110.8 x10_4/uL | RBC [1]: 589.2 x10_4/ul | Ret [1]: 8.5% | WBC [1]: 92.3 x10_2/uL | KIDNEY_L [1]: 0.9 g | KIDNEY_R [1]: 0.9 g | KIDNEY_TOTAL [1]: 1.8 g | LIVER [1]: 9.4 g | ALP [1]: 1883.2 IU/L | ALT [1]: 42.8 IU/L | AST [1]: 71.6 IU/L | BUN [1]: 9 mg/dL | CRE [1]: 0.2 mg/dL | Ca [1]: 10.7 mg/dL | Cl [1]: 108.8 meq/L | DBIL [1]: 0.018 mg/dL | IP [1]: 7 mg/dL | K [1]: 4 meq/L | LDH [1]: 54.6 IU/L | PL [1]: 86.6 mg/dL | RALB [1]: 2.5 g/dL | TBIL [1]: 0.042 mg/dL | TC [1]: 32.4 mg/dL | TP [1]: 5.2 g/dL | gamma-GTP [1]: 1 IU/L

Source: ChEMBL document CHEMBL3885861, “Open TG-GATES”
